Read-outs that look alike come from different tables or passages of the source.

The source of these data is patent US8541418B2, “Inhibitors of polo-like kinase” (Elan Pharmaceutical, Inc., priority 2009, dated 2013).

What all share (type): biochemical
The target of one assay is PLK3 (Homo sapiens, UniProt Q9H4B4). Nature of the assay: PLK TR-FRET peptide assay, PLK3. (In general: Time-resolved FRET reads energy transfer from a long-lived donor to a nearby acceptor.)
Another assay addresses PLK1 (Homo sapiens, UniProt P53350). Nature of the assay: PLK TR-FRET peptide assay, PLK1.
A further assay addresses PLK2 (Homo sapiens, UniProt Q9NYY3). The assay is described as follows: PLK TR-FRET peptide assay, PLK2. Particulars: for IC50: PLK TR-FRET peptide assay, read-out: Plk2 IC50.
[1] abbreviates: GST-PLK3, 15 min reaction, read-out: Plk3 IC50.

Sequence of PLK3 (Q9H4B4 whole entry): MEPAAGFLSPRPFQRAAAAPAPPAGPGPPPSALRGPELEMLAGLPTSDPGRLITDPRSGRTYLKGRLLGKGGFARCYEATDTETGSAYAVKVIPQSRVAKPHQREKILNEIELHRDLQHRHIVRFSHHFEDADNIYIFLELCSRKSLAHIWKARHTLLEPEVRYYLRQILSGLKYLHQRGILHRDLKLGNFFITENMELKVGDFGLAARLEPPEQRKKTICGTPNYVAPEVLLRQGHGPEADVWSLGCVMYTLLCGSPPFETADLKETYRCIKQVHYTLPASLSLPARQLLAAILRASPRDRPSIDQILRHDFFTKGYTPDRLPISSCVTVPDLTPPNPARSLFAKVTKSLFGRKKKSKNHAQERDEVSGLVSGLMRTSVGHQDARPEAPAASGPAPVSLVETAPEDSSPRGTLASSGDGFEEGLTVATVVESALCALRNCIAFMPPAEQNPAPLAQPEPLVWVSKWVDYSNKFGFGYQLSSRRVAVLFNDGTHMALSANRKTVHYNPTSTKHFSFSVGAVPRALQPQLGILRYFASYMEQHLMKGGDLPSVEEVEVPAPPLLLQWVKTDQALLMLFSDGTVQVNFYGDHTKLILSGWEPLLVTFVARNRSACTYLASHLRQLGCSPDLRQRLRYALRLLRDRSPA
Sequence of PLK1 (P53350 whole entry): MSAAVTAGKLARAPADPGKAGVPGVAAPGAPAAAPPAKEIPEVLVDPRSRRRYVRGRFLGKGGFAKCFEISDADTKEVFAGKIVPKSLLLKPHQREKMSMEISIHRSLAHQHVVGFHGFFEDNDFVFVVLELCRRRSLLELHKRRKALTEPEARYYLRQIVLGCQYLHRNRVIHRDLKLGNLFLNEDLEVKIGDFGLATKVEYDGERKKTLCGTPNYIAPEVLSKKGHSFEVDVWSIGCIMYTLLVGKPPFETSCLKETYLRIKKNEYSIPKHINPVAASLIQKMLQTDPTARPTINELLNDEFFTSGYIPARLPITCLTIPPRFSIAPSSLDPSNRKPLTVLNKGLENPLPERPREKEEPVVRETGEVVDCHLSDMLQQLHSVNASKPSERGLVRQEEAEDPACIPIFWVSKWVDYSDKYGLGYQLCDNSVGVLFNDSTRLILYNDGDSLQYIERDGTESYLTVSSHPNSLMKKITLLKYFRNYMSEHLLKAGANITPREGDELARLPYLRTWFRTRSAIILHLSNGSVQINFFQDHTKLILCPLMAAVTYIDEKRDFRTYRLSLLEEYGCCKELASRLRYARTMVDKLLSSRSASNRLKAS
Sequence of PLK2 (Q9NYY3 whole entry): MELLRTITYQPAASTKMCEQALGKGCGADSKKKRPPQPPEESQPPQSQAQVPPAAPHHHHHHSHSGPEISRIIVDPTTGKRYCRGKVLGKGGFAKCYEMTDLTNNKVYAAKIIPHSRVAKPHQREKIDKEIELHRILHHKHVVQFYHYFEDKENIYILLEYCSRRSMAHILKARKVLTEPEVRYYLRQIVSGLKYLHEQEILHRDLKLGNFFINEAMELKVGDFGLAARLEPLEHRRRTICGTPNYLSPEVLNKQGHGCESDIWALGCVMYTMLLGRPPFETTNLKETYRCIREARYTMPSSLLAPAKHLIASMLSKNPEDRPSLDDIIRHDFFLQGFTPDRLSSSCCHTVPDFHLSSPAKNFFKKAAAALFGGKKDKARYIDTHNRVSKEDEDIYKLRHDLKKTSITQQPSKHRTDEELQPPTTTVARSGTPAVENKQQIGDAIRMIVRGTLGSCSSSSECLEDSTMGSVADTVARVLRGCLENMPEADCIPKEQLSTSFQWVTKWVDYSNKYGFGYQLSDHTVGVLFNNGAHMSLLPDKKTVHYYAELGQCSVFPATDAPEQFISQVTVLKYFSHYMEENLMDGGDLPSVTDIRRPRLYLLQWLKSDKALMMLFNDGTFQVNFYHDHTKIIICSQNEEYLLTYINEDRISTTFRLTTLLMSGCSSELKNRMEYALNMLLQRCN

Consider `CC[C@@H]1C(=O)N(C)c2cnc(N3CCN=C3C3CC3)nc2N1C(C)C` [Example 297, (R)-2-(2-cyclopropyl-4,5-dihydro-1H-imidazol-1-yl)-7-ethyl-8-isopropyl-5-methyl-7,8-dihydropteridin-6(5H)-one], for which the IC50 at PLK3 (setting [1]) fell in the range of 10 to 50 µM; on PLK1 (GST-PLK1, 60 min reaction), 10 to 50 µM; on PLK2 (GST-PLK2, 60 min reaction) it was 10 to 50 µM.

With `CC[C@@H]1C(=O)N(C)c2cnc(-c3ccncc3CNC(=O)OC)nc2N1C(C)C` [Example 128, (R)-methyl (4-(7-ethyl-8-isopropyl-5-methyl-6-oxo-5,6,7,8-tetrahydropteridin-2-yl)pyridin-3-yl)methylcarbamate], the half-maximal inhibitory concentration (IC50) on PLK3 (setting [1]) was in the range of 10 to 50 µM; against PLK1 (GST-PLK1, 60 min reaction), 10 to 50 µM; on PLK2 (GST-PLK2, 60 min reaction) it was 1 to 10 µM.

For `CC[C@@H]1C(=O)N(C)c2cnc(-n3ccnc3-c3cncc(F)c3)nc2N1C1CCCC1` [Example 99, (R)-8-cyclopentyl-7-ethyl-2-(2-(5-fluoropyridin-3-yl)-1H-imidazol-1-yl)-5-methyl-7,8-dihydropteridin-6(5H)-one], the 50% inhibitory concentration (IC50) at PLK3 (setting [1]) is less than 1 µM; against PLK1 (GST-PLK1, 60 min reaction) it was less than 1 µM; on PLK2 (GST-PLK2, 60 min reaction), less than 1 µM.

With `CC[C@@H]1C(=O)N(C)c2cnc(-c3ccncc3-c3ccccc3)nc2N1C1CCCC1` [Example 85, (R)-8-cyclopentyl-7-ethyl-5-methyl-2-(3-phenylpyridin-4-yl)-7,8-dihydropteridin-6(5H)-one], the IC50 was less than 1 µM on PLK3 (setting [1]); less than 1 µM on PLK1 (GST-PLK1, 60 min reaction); less than 1 µM on PLK2 (GST-PLK2, 60 min reaction).

Take `CC[C@@]12CCC(=O)N1c1nc(-n3ccnc3-c3ccccc3)ncc1N(C)C2=O` [Example 258, (S)-6a-ethyl-5-methyl-2-(2-phenyl-1H-imidazol-1-yl)-7,8-dihydropyrrolo[2,1-h]pteridine-6,9(5H,6aH)-dione]: the 50% inhibitory concentration (IC50) was more than 50 µM on PLK3 (setting [1]); more than 50 µM against PLK1 (GST-PLK1, 60 min reaction); 10 to 50 µM at PLK2 (GST-PLK2, 60 min reaction).

With `CC[C@@H]1C(=O)N(C)c2cnc(-c3ccncc3CN)nc2N1C(C)C` [Example 126, (R)-2-(3-(aminomethyl)pyridin-4-yl)-7-ethyl-8-isopropyl-5-methyl-7,8-dihydropteridin-6(5H)-one], the 50% inhibitory concentration (IC50) on PLK3 (setting [1]) is more than 50 µM; on PLK1 (GST-PLK1, 60 min reaction), more than 50 µM; on PLK2 (GST-PLK2, 60 min reaction) it was 10 to 50 µM.

`CC(C)N1c2nc(-n3ccnc3-c3ccc(F)cc3)ncc2N(C)C(=O)C1(C)C` [Example 298, 2-(2-(4-fluorophenyl)-1H-imidazol-1-yl)-8-isopropyl-5,7,7-trimethyl-7,8-dihydropteridin-6(5H)-one]: the 50% inhibitory concentration (IC50) at PLK3 (setting [1]) is more than 50 µM; at PLK1 (GST-PLK1, 60 min reaction) it was more than 50 µM; on PLK2 (GST-PLK2, 60 min reaction), 1 to 10 µM.

On to `CN1C(=O)C2(CC(F)(F)F)CCCN2c2nc(-n3ccnc3)ncc21` (stereo not shown) [Example 329, 2-(1H-imidazol-1-yl)-5-methyl-6a-(2,2,2-trifluoroethyl)-6a,7,8,9-tetrahydropyrrolo[2,1-h]pteridin-6(5H)-one], for which the IC50 was 10 to 50 µM on PLK3 (setting [1]); 10 to 50 µM on PLK1 (GST-PLK1, 60 min reaction); 10 to 50 µM on PLK2 (GST-PLK2, 60 min reaction).

As to `CC[C@@H]1C(=O)N(C)c2cnc(-n3cnc(-c4ccccc4)c3)nc2N1C1CCCC1` [Example 36, (R)-8-cyclopentyl-7-ethyl-5-methyl-2-(4-phenyl-1H-imidazol-1-yl)-7,8-dihydropteridin-6(5H)-one], the 50% inhibitory concentration (IC50) on PLK3 (setting [1]) is 10 to 50 µM; against PLK1 (GST-PLK1, 60 min reaction) it was less than 1 µM; on PLK2 (GST-PLK2, 60 min reaction), less than 1 µM.

Turning to `CC[C@@H]1C(=O)N(C)c2cnc(-n3ccnc3C(F)(F)F)nc2N1C1CCCC1` [Example 352, (R)-8-cyclopentyl-7-ethyl-5-methyl-2-(2-(trifluoromethyl)-1H-imidazol-1-yl)-7,8-dihydropteridin-6(5H)-one], the IC50 is 1 to 10 µM on PLK3 (setting [1]); 1 to 10 µM against PLK1 (GST-PLK1, 60 min reaction); less than 1 µM at PLK2 (GST-PLK2, 60 min reaction).

As to `CCC1C(=O)N(C)c2cnc(-n3ccnc3-c3ccc(F)cc3)nc2N1c1ccc(Cl)cc1` (stereo not shown) [Example 388, 8-(4-chlorophenyl)-7-ethyl-2-(2-(4-fluorophenyl)-1H-imidazol-1-yl)-5-methyl-7,8-dihydropteridin-6(5H)-one], the IC50 is 1 to 10 µM on PLK3 (GST-PLK3, read-out: Plk3 IC50); 1 to 10 µM against PLK1 (GST-PLK1); less than 1 µM at PLK2 (GST-PLK2).

As to `CC[C@@H]1C(=O)N(C)c2cnc(-c3cn[nH]c3)nc2N1C(C)C` [Example 31, (R)-7-ethyl-8-isopropyl-5-methyl-2-(1H-pyrazol-4-yl)-7,8-dihydropteridin-6(5H)-one], the IC50 at PLK3 (setting [1]) is more than 50 µM; at PLK1 (GST-PLK1, 60 min reaction), 1 to 10 µM; on PLK2 (GST-PLK2, 60 min reaction) it was less than 1 µM.

Take `CN1C(=O)C2CC3CC3N2c2nc(-n3ccnc3-c3ccccc3)ncc21` (stereo not shown) [Example 304, 5-Methyl-2-(2-phenyl-imidazol-1-yl)-7,7a,8,8a-tetrahydro-5H,6aH-1,3,5,8b-tetraaza-cyclopropa[4,5]cyclopenta[1,2-a]naphthalen-6-one]: the IC50 on PLK3 (setting [1]) was more than 50 µM; against PLK1 (GST-PLK1, 60 min reaction) it was more than 50 µM; at PLK2 (GST-PLK2, 60 min reaction), 10 to 50 µM.

For `CC[C@@H]1C(=O)N(C)c2cnc(-c3ccncc3CNS(C)(=O)=O)nc2N1C(C)C` [Example 131, (R)—N-((4-(7-ethyl-8-isopropyl-5-methyl-6-oxo-5,6,7,8-tetrahydropteridin-2-yl)pyridin-3-yl)methyl)methanesulfonamide], the half-maximal inhibitory concentration (IC50) on PLK3 (setting [1]) is more than 50 µM; on PLK1 (GST-PLK1, 60 min reaction), more than 50 µM; on PLK2 (GST-PLK2, 60 min reaction), 10 to 50 µM.

As to `CCC1C(=O)N(C)c2cnc(-c3cn[nH]c3-c3nccs3)nc2N1c1cccc(C#N)c1` (stereo not shown) [Example 372, 3-(7-ethyl-5-methyl-6-oxo-2-(5-(thiazol-2-yl)-1H-pyrazol-4-yl)-6,7-dihydropteridin-8(5H)-yl)benzonitrile], the half-maximal inhibitory concentration (IC50) was 1 to 10 µM on PLK3 (setting [1]); 1 to 10 µM against PLK1 (GST-PLK1, 60 min reaction); less than 1 µM at PLK2 (GST-PLK2, 60 min reaction).

Consider `CC[C@@H]1C(=O)N(C)c2cnc(-c3sc(Br)nc3-c3ccc(F)cc3)nc2N1C(C)C` [Example 347, (R)-2-(2-bromo-4-(4-fluorophenyl)thiazol-5-yl)-7-ethyl-8-isopropyl-5-methyl-7,8-dihydropteridin-6(5H)-one], for which the IC50 at PLK3 (setting [1]) was more than 50 µM; against PLK1 (GST-PLK1, 60 min reaction), more than 50 µM; at PLK2 (GST-PLK2, 60 min reaction), less than 1 µM.

Take `CC[C@@H]1C(=O)N(C)c2cnc(-c3cncnc3-c3ccc(C(F)(F)F)cc3)nc2N1C(C)C` [Example 168, (R)-7-ethyl-8-isopropyl-5-methyl-2-(4-(4-(trifluoromethyl)phenyl)pyrimidin-5-yl)-7,8-dihydropteridin-6(5H)-one]: the 50% inhibitory concentration (IC50) on PLK3 (setting [1]) is more than 50 µM; against PLK1 (GST-PLK1, 60 min reaction), 10 to 50 µM; on PLK2 (GST-PLK2, 60 min reaction), 10 to 50 µM.

For `CC[C@@H]1C(=O)N(C)c2cnc(-n3ccnc3-c3cccc(Br)c3)nc2N1C(C)C` [Example 220, (R)-2-(2-(3-bromophenyl)-1H-imidazol-1-yl)-7-ethyl-8-isopropyl-5-methyl-7,8-dihydropteridin-6(5H)-one], the concentration for half-maximal inhibition (IC50) on PLK3 (setting [1]) is 1 to 10 µM; at PLK1 (GST-PLK1, 60 min reaction), less than 1 µM; at PLK2 (GST-PLK2, 60 min reaction), less than 1 µM.

Regarding `CC[C@@H]1C(=O)N(C)c2cnc(-n3ccnc3-c3ccc(F)c(F)c3)nc2N1C1COC1` [Example 341, (R)-2-(2-(3,4-difluorophenyl)-1H-imidazol-1-yl)-7-ethyl-5-methyl-8-(oxetan-3-yl)-7,8-dihydropteridin-6(5H)-one], the half-inhibitory concentration (IC50) at PLK3 (setting [1]) is more than 50 µM; against PLK1 (GST-PLK1, 60 min reaction), more than 50 µM; on PLK2 (GST-PLK2, 60 min reaction), 1 to 10 µM.

Take `[2H]C([2H])([2H])N1C(=O)[C@@H](C([2H])([2H])C([2H])([2H])[2H])N(C([2H])(C([2H])([2H])[2H])C([2H])([2H])[2H])c2nc(-n3ccnc3-c3ccc(F)cc3)ncc21` [Example 200, (R)-7-perdeuteroethyl-2-(2-(4-fluorophenyl)-1H-imidazol-1-yl)-8-perdeuteroisopropyl-5-trideuteromethyl-7,8-dihydropteridin-6(5H)-one]: the IC50 is 1 to 10 µM at PLK3 (setting [1]); 1 to 10 µM against PLK1 (GST-PLK1, 60 min reaction); less than 1 µM on PLK2 (GST-PLK2, 60 min reaction). In addition, on PLK2 (compared with the opposite enantiomer), the “relative PLK2 activity of the enantiomers” value is given as “more active compound”.

Take `CC[C@@H]1C(=O)N(C)c2cnc(-c3ccncc3CNS(=O)(=O)c3ccccc3)nc2N1C(C)C` [Example 136, (R)—N-((4-(7-ethyl-8-isopropyl-5-methyl-6-oxo-5,6,7,8-tetrahydropteridin-2-yl)pyridin-3-yl)methyl)benzenesulfonamide]: the 50% inhibitory concentration (IC50) is more than 50 µM at PLK3 (setting [1]); 10 to 50 µM on PLK1 (GST-PLK1, 60 min reaction); 1 to 10 µM at PLK2 (GST-PLK2, 60 min reaction).

For the molecule `[2H]C([2H])([2H])N1C(=O)[C@@H](C([2H])([2H])C([2H])([2H])[2H])N(C([2H])(C([2H])([2H])[2H])C([2H])([2H])[2H])c2nc(-n3ccnc3-c3cc(F)cc(F)c3)ncc21` [Example 179, (R)-2-(2-(3,5-difluorophenyl)-1H-imidazol-1-yl)-7-perdeuteroethyl-8-perdeuteroisopropyl-5-trideuteromethyl-7,8-dihydropteridin-6(5H)-one], the IC50 on PLK3 (setting [1]) was 1 to 10 µM; against PLK1 (GST-PLK1, 60 min reaction), less than 1 µM; at PLK2 (GST-PLK2, 60 min reaction) it was less than 1 µM.

On to `CC[C@@H]1C(=O)N(C)c2cnc(-n3ncnc3-c3ccccc3)nc2N1C1CCC1` [Example 208, (R)-8-cyclobutyl-7-ethyl-5-methyl-2-(5-phenyl-1H-1,2,4-triazol-1-yl)-7,8-dihydropteridin-6(5H)-one], for which the IC50 at PLK3 (setting [1]) was less than 1 µM; against PLK1 (GST-PLK1, 60 min reaction), less than 1 µM; at PLK2 (GST-PLK2, 60 min reaction) it was less than 1 µM.

Consider `CC[C@@H]1C(=O)N(C)c2cnc(-n3ccnc3-c3ccccc3)nc2N1C1COC1` [Example 335, (R)-7-ethyl-5-methyl-8-(oxetan-3-yl)-2-(2-phenyl-1H-imidazol-1-yl)-7,8-dihydropteridin-6(5H)-one], for which the concentration for half-maximal inhibition (IC50) was 10 to 50 µM at PLK3 (setting [1]); 1 to 10 µM on PLK1 (GST-PLK1, 60 min reaction); less than 1 µM at PLK2 (GST-PLK2, 60 min reaction).

As for `CC[C@@H]1C(=O)N(C)c2cnc(-n3ccnc3-c3cnccn3)nc2N1C1CC1` [Example 141, (R)-8-cyclopropyl-7-ethyl-5-methyl-2-(2-(pyrazin-2-yl)-1H-imidazol-1-yl)-7,8-dihydropteridin-6(5H)-one], the IC50 was more than 50 µM on PLK3 (setting [1]); more than 50 µM at PLK1 (GST-PLK1, 60 min reaction); 1 to 10 µM on PLK2 (GST-PLK2, 60 min reaction).

A word on the IC50: it is the concentration at which inhibition is half-maximal.
